Test results reported in patent US12611475B2, “System for implantation by sterilisation techniques” (Universidade de Santiago de Compostela, priority 2020, dated 2026).
Counter-ions that a name gives are not always drawn.

Experiments:
[1] = X-ray diffraction and infrared spectrum after treatment; format: physicochemical; details: 1200 ppm hydrogen peroxide, supercritical CO2 39° C., 140 bar, 2.5 and 2.5 hours; versus untreated
Experimental: FIG. 4. X-ray diffraction spectrum (A) and infrared spectrum (B) of vancomycin hydrochloride i) untreated and (ii) after addition of 1200 ppm hydrogen peroxide and processing with supercritical CO2 at 39° C., 140 bar during batch stages and continuous compressed CO2 flux for 2.5 and 2.5 hours, respectively. Caption: vancomycin untreated hydrochloride (black), vancomycin treated hydrochloride (gray)

[2] = system: Bacillus pumilus spores (ATCC 27142); details: 150 ppm H2O2, CO2 39° C., 100 bar, continuous flow 10 g/min, 15 minutes; 10^6 spores
Experimental: Mask cutouts (4 cm 2) were inoculated with 10^6 spores contained in 100 μL of aqueous solution. The samples were placed inside sterilization bags and heat-sealed to be placed in a 600 mL stainless steel autoclave (Novagenesis, Novasterilis Inc.) provided with lower mechanical agitation. H2O2 was added as an additive at the bottom of the autoclave to avoid direct contact with the masks at a content of 150 ppm. The system is heated to 39° C. and pressurized with a CO2 flow to reach 100 bar. A continuous flow of CO2 of 0 to 10 g/min through the autoclave was maintained for a period of 15 minutes. Subsequently, the system is depressurized to reach atmospheric pressure at a rate of 14.3 bar/min.
The effectiveness of the sterilization method was evaluated by sowing tryptone-soybean agar culture medium and subsequent counting of formed colonies.

CN[C@H](CC(C)C)C(=O)N[C@H]1C(=O)N[C@@H](CC(N)=O)C(=O)N[C@H]2C(=O)N[C@H]3C(=O)N[C@H](C(=O)N[C@H](C(=O)O)c4cc(O)cc(O)c4-c4cc3ccc4O)[C@H](O)c3ccc(c(Cl)c3)Oc3cc2cc(c3O[C@@H]2O[C@H](CO)[C@@H](O)[C@H](O)[C@H]2O[C@H]2C[C@](C)(N)[C@H](O)[C@H](C)O2)Oc2ccc(cc2Cl)[C@H]1O [Vancomycin hydrochloride, vancomycin hydrochloride]
crystalline form after treatment [1]: not altered

OO [Test H2O2, hydrogen peroxide]
sterility level reached on FFP3 mask cutouts [2]: SAL-6
